Measurements as given in patent US8097422B2, “Kir channel modulators” (Salk Institute for Biological Studies, priority 2007, dated 2012).
Where a chain is given by its changes, count along the chain named.

Key:
Assay type in all cases: cell-based
GIRK2 PIP channel = biological target: T1, GIRK2 PIP channel (Mus musculus, UniProt P48542, D228N/I234L/N231K); assay: whole-cell patch clamp, GIRK2 PIP chimeric channel; conditions: equimolar alcohol series (50 mM)
T1 construct: expressed in transfected cells; host or cells: HEK293 / HEK293T
T1 sequence (P48542 1-425 D228N/N231K/I234L): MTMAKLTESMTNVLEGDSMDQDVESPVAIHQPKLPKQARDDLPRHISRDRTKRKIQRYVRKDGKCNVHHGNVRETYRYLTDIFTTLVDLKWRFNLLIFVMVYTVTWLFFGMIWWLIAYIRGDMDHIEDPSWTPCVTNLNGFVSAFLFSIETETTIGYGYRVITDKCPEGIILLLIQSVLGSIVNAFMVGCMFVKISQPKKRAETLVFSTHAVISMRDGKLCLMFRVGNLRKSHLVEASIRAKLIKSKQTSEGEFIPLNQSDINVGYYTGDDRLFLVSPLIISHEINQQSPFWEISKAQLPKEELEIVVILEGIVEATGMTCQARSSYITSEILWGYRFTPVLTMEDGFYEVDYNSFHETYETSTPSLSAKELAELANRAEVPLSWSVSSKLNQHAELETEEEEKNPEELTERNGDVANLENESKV
Experimental: To test whether this sensitivity to inhibition would be altered by mutation at the MPD-bound hydrophobic pocket, Leu257 was mutated to Trp for this channel.
HEK 293T cells were cultured in DMEM supplemented with 10% FBS, and 1× Glutamax (Invitrogen) in a humidified 37° incubator with 5% CO2. Cells were plated in a 12 well dish, and were transiently transfected using Lipofectamine 2000 (Invitrogen). After 12-24 hrs, cells were re-plated to 12-mm glass coverslips coated with poly-D-Lysine (20 microgram/ml).
HEK293 cells were transfected with 0.2 micrograms of channel cDNA. The cells were co-transfected with 0.04 micrograms of eYFP cDNA to identify transfected cells. 0.8 micrograms of Muscarinic Receptor 2 (M2R) was also co-transfected for experiments with Carbachol. For experiments with and without m-phosducin, 0.8 ug of m-phosducin cDNA was used versus a PCDNA3.1 vector control.
Whole-cell patch clamp recordings were performed 24-72 hrs after transfection. Borosilicate glass electrodes (Warner Instruments) of 5-7 milliohms filled with intracellular solution (130 mM KCl, 20 mM NaCl, 5 mM EGTA, 2.56 mM K2ATP, 5.46 mM MgCl2, 0.30 mM Li2GTP, and 10 mM HEPES (pH 7.4)) was used. Membrane currents were recorded using Axopatch 200B (Axon Instruments) amplifier, adjusted electronically for cell capacitance and series resistance (80-100%), filtered at 1 kHz with an 8-pole Bessel filter and digitized at 5 kHz with a Digidata 1200 interface (Axon Instruments). The cells rapidly perfused with a 20 mM K^+ (20K) solution (20 mM KCl, 140 mM NaCl, 0.5 mM CaCl2, 2 mM MgCl2 and 10 mM HEPES (pH7.4)). Alcohols, 5 μM Carbachol, and 1 mM BaCl2 (diluted in 20K solution) were applied from outside the cell with the rapid perfusion system (Warner Instruments). Whole-cell currents were measured using a ramp protocol that holds at −40 mV, steps to −100 mV then ramps to +50 mV and repeats every 2 seconds. Current-voltage relationships also were obtained from the ramp protocol. This protocol was used to measure the inwardly rectifying currents at −100 mV and to ensure stability of recording by monitoring a reversal potential and inward rectification. Current density was measured by dividing inward current at −100 mV by membrane capacitance that was compensated during the recording. Basal currents were measured as the Ba^++ blocked inward currents at −100 mV. Alcohol and Carbachol modulated currents were measured by averaging two consecutive current readings upon reaching steady state, and subtracting the averaged basal current before and after the application of modulator. Pooled data are presented as Mean±SEM and evaluated for statistical significance by a 1-way ANOVA, followed by Bonferroni's multiple comparison post-hoc test.

[1] = biological target: T2, GIRK4* L252W mutant channel (Rattus norvegicus, UniProt P48548, L252W/S143T); assay: whole-cell patch clamp, GIRK4* L252W mutant channel; conditions: for modulation of GIRK4* L252W mutant channel, percentage change from basal (negative = inhibition): n=8
T2 construct: expressed in transfected cells; host or cells: HEK293 / HEK293T
T2 sequence (P48548 1-419 S143T/L252W): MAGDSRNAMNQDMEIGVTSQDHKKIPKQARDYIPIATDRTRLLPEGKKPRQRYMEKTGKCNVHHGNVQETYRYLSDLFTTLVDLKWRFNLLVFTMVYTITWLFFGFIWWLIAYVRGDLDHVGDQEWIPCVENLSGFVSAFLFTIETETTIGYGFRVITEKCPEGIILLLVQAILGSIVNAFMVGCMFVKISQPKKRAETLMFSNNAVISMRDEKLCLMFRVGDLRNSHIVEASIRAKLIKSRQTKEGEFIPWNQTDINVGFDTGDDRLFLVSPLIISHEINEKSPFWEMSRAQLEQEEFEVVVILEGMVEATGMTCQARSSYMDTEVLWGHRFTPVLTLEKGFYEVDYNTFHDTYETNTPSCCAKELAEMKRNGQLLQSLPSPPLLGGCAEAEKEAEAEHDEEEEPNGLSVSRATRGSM
Experimental: (§1) Point mutations were introduced by Quickchange site directed mutagenesis kit (Stratagene). The GIRK2 PIP mutant was generated by overlap-PCR method. […] Mutations were confirmed by automated DNA sequencing methods. […] Cells were plated in a 12 well dish, and were transiently transfected using Lipofectamine 2000 (Invitrogen). After 12-24 hrs, cells were re-plated to 12-mm glass coverslips coated with poly-D-[…] microgram/ml). […] The cells were co-transfected with 0.04 micrograms of eYFP cDNA to identify transfected cells. 0.8 micrograms of Muscarinic Receptor 2 (M2R) was also co-transfected for experiments with Carbachol. […] Whole-cell patch clamp recordings were performed 24-72 hrs after transfection. […] Alcohols, 5 μM Carbachol, and 1 mM BaCl2 (diluted in 20K solution) were applied from outside the cell with the rapid perfusion system (Warner Instruments). […] Current-voltage relationships also were obtained from the ramp protocol. This protocol was used to measure the inwardly rectifying currents at -100 mV and to ensure stability of recording by monitoring a reversal potential and inward rectification. […] Alcohol and Carbachol modulated currents were measured by averaging two consecutive current readings upon reaching steady state, and subtracting the averaged basal current before and after the application of modulator.

[2] = tested on: GIRK2 PIP S148T mutant channel; assay: whole-cell patch clamp, GIRK2 PIP S148T mutant channel; conditions: GIRK2 PIP S148T compared with GIRK2 PIP L257W
Experimental: as §1

[3] = biological target: T3, GIRK2 Y349W mutant channel (Mus musculus, UniProt P48542, Y349W); assay: whole-cell patch clamp, GIRK2 Y349W mutant channel; conditions: n=10
T3 construct: expressed in transfected cells; host or cells: HEK293T
T3 sequence (P48542 whole entry Y349W): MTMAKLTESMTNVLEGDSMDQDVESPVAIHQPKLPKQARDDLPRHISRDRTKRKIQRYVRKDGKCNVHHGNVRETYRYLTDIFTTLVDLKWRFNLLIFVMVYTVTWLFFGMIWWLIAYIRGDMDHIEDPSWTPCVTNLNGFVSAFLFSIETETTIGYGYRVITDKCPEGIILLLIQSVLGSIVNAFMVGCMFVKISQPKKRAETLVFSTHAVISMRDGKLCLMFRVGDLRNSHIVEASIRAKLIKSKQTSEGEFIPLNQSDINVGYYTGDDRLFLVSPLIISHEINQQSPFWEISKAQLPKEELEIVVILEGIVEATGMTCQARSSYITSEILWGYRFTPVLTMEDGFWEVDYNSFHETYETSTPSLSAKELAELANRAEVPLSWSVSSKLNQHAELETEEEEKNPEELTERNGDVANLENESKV
Experimental: as §1

Kir3 channels [4] = assay: patch-clamp determination of ion transport activity: activation of Kir3 channels; conditions: Kir3 activation or Kir2 inactivation
Description: (§2) It has been determined that inwardly rectifying potassium (Kir) channels are regulated directly by small molecule alcohol compounds. Three-dimensional crystallographic analysis of Kir channels has elucidated atomic details of binding pocket interactions with 2-methyl-2,4-pentanediol (MPD). MPD inhibits Kir2 channel activity and activates Kir3 channel activity. Amino acid substitutions in this hydrophobic pocket of the channel protein may alter the response to MPD. As determined by patch-clamp determinations of ion transport activity, a racemic mixture of 2-methyl-2,4-pentanediol, (±)MPD, activates Kir3 channels with an EC50 of >200 mM and inhibits Kir2 homotetramer channels with an IC50 of ˜200 mM. […] Bupivacaine inhibits Kir3.1/3.4 and Kir3.1/3.2 channels with an IC50 of ˜20-40 micromolar.
(§3) The following also were observed. Maximal activation of Kir3 channels by 100 mM (±)MPD is 280% that of 100 mM EtOH. Maximal activation of Kir3 channels by 100 mM R(−)2 methyl-2,4-pentanediol is 60% that of 100 mM (±)MPD. Maximal activation of Kir3 channels by 100 mM 3-methyl-1,3,5-pentanetriol is 70% that of 100 mM (±)MPD. Maximal activation of Kir3 channels by 100 mM 2,5-dimethyl-1,2,6-hexanetriol is 70% that of 100 mM (±)MPD. Maximal activation of Kir3 channels by 100 mM (±) 2,4-pentanediol is 50% that of 100 mM (±)MPD.

Kir3 channels [5] = biological target: T4, Kir3 channels (Mus musculus, UniProt P48542); assay: as above; conditions: read-out: Maximal activation of Kir3 channels relative to that of 100 mM EtOH
T4 construct: other: patch-clamp; other: 100 mM
T4 sequence (P48542 1-425): T1 sequence (P48542 1-425 D228N/N231K/I234L) with N228D, K231N, L234I
Description: as §2, §3

Compound | inhibition of GIRK2 PIP channel, percentage inhibition (GIRK2 PIP channel) [%] | modulation of GIRK4* L252W mutant channel, percentage change from basal (negative = inhibition) [1] [%] | change in sensitivity to inhibition when Ser at the P-loop is mutated to Thr [2] [fold] | also measured
1-propanol [1-PrOH] | −87±2 | −19±2 | ~100 | 1-PrOH activated current, GIRK2 Y349W, percentage change from basal current [3]: 256±25%
CCO [EtOH, ethanol] | −18±2 | 5±2 | – | –
C[N+](C)(C)CCOC(N)=O [Carbachol] | – | – | – | Carb (G-protein mediated) activation, GIRK4* L252 Trp ([1]; 5 μM Carbachol): 23±3%; Carbachol activated current, GIRK2 Y349W, percentage change from basal current ([3]; 5 μM Carbachol): 56±5
1-butanol [1-BuOH] | −97±1 | – | – | –
CC(O)CC(C)(C)O (racemic) [MPD, 2-methyl-2,4-pentanediol] | −80±2 | – | ~20 | time course of inactivation or activation after application (Kir3 channels [4]): within seconds; Emax at 100000 µM (Kir3 channels [5]): 280%
